Reference: PubChem BioAssay (NCI)
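A five-concentration, 48-hour dose response in 96-well plates underlies each endpoint, interpolated linearly between surrounding concentrations. TGI is the concentration that stops growth completely.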

Columns and labels:
Assay in all cases: NCI anticancer screen, dose series, 48 h
[1] = system: DLD-1 colon
[2] = system: HCT-15 colon
[3] = system: NCI-H460 lung
[4] = system: HOP-92 NSCLC
[5] = system: SK-MEL-5 melanoma
[6] = system: 786-0 renal
[7] = system: OVCAR-8 ovarian
[8] = system: SNB-78 CNS
[9] = system: NCI-H23 lung
[10] = system: CCRF-CEM leukemia
[11] = system: DMS 114 small cell lung
[12] = system: KM20L2 colon
[13] = system: U251 CNS
[14] = system: SN12C renal
[15] = system: UACC-257 melanoma
[16] = system: K-562 leukemia
[17] = system: M14 melanoma
[18] = system: OVCAR-5 ovarian
[19] = system: A498 renal
[20] = system: SF-268 CNS
[21] = system: HOP-62 NSCLC
[22] = system: IGROV1 ovarian
[23] = system: UACC-62 melanoma
[24] = system: M19-MEL melanoma
[25] = system: COLO 205 colon
[26] = system: DMS 273 small cell lung
[27] = system: RPMI-8226 leukemia
[28] = system: SK-MEL-28 melanoma
[29] = system: LOX IMVI melanoma
[30] = system: HL-60(TB) leukemia
[31] = system: OVCAR-4 ovarian
[32] = system: HT29 colon
[33] = system: A549 NSCLC
[34] = system: SF-539 CNS
[35] = system: NCI-H226 lung
[36] = system: NCI-H522 lung
[37] = system: MOLT-4 leukemia
[38] = system: SR leukemia
[39] = system: HCT-116 colon
[40] = system: SW-620 colon
[41] = system: HOP-18 NSCLC
[42] = system: SNB-75 CNS
[43] = system: ACHN renal
[44] = system: RXF 393 renal
[45] = system: KM12 colon
[46] = system: LXFL 529 NSCLC
[47] = system: SNB-19 CNS
[48] = system: EKVX NSCLC
[49] = system: SF-295 CNS
[50] = system: XF 498 CNS
[51] = system: MALME-3M melanoma
[52] = system: UO-31 renal
[53] = system: CAKI-1 renal
[54] = system: SK-MEL-2 melanoma
[55] = system: HCC-2998 colon
[56] = system: SK-OV-3 ovarian
[57] = system: OVCAR-3 ovarian
[58] = system: TK-10 renal

## CC1(C)OC2C(O1)[C@H]1OC(C(Cl)(Cl)Cl)=N[C@H]1C(I)[C@H]2N1C(=O)c2ccccc2C1=O (stereo not given in full)
[1]
  TGI: > 100 µM
[2]
  TGI: > 100 µM
[3]
  TGI: > 100 µM
[4]
  TGI: > 100 µM
[5]
  TGI: > 100 µM
[6]
  TGI: > 100 µM
[7]
  TGI: > 100 µM
[8]
  TGI: > 100 µM
[9]
  TGI: > 100 µM
[10]
  TGI: > 100 µM
[11]
  TGI: > 100 µM
[12]
  TGI: > 100 µM
[13]
  TGI: > 100 µM
[14]
  TGI: > 100 µM
[15]
  TGI: > 100 µM
[16]
  TGI: > 100 µM
[17]
  TGI: > 100 µM
[18]
  TGI: > 100 µM
[19]
  TGI: > 100 µM
[20]
  TGI: > 100 µM
[21]
  TGI: > 100 µM
[22]
  TGI: 61.7 µM
[23]
  TGI: > 100 µM
[24]
  TGI: > 100 µM
[25]
  TGI: > 100 µM
[26]
  TGI: > 100 µM
[27]
  TGI: > 100 µM
[28]
  TGI: > 100 µM
[29]
  TGI: > 100 µM
[30]
  TGI: 44.4 µM
[31]
  TGI: 55.5 µM
[32]
  TGI: > 100 µM
[33]
  TGI: 97.5 µM
[34]
  TGI: > 100 µM
[35]
  TGI: > 100 µM
[36]
  TGI: 74.5 µM
[37]
  TGI: 58.3 µM
[38]
  TGI: 65.4 µM
[39]
  TGI: > 100 µM
[40]
  TGI: > 100 µM
[41]
  TGI: > 100 µM
[42]
  TGI: > 100 µM
[43]
  TGI: > 100 µM
[44]
  TGI: 88.6 µM
[45]
  TGI: > 100 µM
[46]
  TGI: > 100 µM
[47]
  TGI: > 100 µM
[48]
  TGI: > 100 µM
[49]
  TGI: > 100 µM

## Cc1c(-c2cc(-c3ccccc3)n[nH]c2=O)c2ccccc2n1C
[1]
  TGI: > 100 µM
[50]
  TGI: > 100 µM
[2]
  TGI: > 100 µM
[3]
  TGI: > 100 µM
[4]
  TGI: > 100 µM
[5]
  TGI: > 100 µM
[6]
  TGI: > 100 µM
[7]
  TGI: > 100 µM
[8]
  TGI: > 100 µM
[51]
  TGI: > 100 µM
[9]
  TGI: > 100 µM
[10]
  TGI: > 100 µM
[11]
  TGI: > 100 µM
[12]
  TGI: > 100 µM
[13]
  TGI: > 100 µM
[52]
  TGI: > 100 µM
[14]
  TGI: > 100 µM
[15]
  TGI: > 100 µM
[16]
  TGI: > 100 µM
[17]
  TGI: > 100 µM
[18]
  TGI: > 100 µM
[19]
  TGI: > 100 µM
[20]
  TGI: > 100 µM
[53]
  TGI: > 100 µM
[21]
  TGI: > 100 µM
[22]
  TGI: > 100 µM
[23]
  TGI: > 100 µM
[24]
  TGI: > 100 µM
[54]
  TGI: > 100 µM
[25]
  TGI: > 100 µM
[26]
  TGI: > 100 µM
[27]
  TGI: > 100 µM
[55]
  TGI: > 100 µM
[28]
  TGI: > 100 µM
[30]
  TGI: > 100 µM
[31]
  TGI: > 100 µM
[32]
  TGI: > 100 µM
[33]
  TGI: > 100 µM
[34]
  TGI: > 100 µM
[35]
  TGI: > 100 µM
[56]
  TGI: > 100 µM
[36]
  TGI: > 100 µM
[37]
  TGI: > 100 µM
[38]
  TGI: > 100 µM
[39]
  TGI: > 100 µM
[57]
  TGI: > 100 µM
[40]
  TGI: > 100 µM
[41]
  TGI: > 100 µM
[42]
  TGI: > 100 µM
[43]
  TGI: > 100 µM
[44]
  TGI: > 100 µM
[45]
  TGI: > 100 µM
[46]
  TGI: > 100 µM
[58]
  TGI: > 100 µM
[47]
  TGI: > 100 µM
[48]
  TGI: > 100 µM
[49]
  TGI: > 100 µM

## COC(=O)[C@H]1C2CC[C@@H]3C45C[C@@H](c6ccoc6)O[C@@H]4O[C@@H](O2)C31CCC5C (stereo not given in full)
[1]
  TGI: > 100 µM
[50]
  TGI: > 100 µM
[2]
  TGI: > 100 µM
[3]
  TGI: > 100 µM
[4]
  TGI: > 100 µM
[5]
  TGI: > 100 µM
[6]
  TGI: > 100 µM
[7]
  TGI: > 100 µM
[8]
  TGI: > 100 µM
[51]
  TGI: > 100 µM
[9]
  TGI: > 100 µM
[10]
  TGI: > 100 µM
[12]
  TGI: > 100 µM
[13]
  TGI: > 100 µM
[52]
  TGI: > 100 µM
[14]
  TGI: > 100 µM
[15]
  TGI: > 100 µM
[16]
  TGI: > 100 µM
[17]
  TGI: > 100 µM
[18]
  TGI: > 100 µM
[19]
  TGI: > 100 µM
[20]
  TGI: > 100 µM
[53]
  TGI: > 100 µM
[21]
  TGI: > 100 µM
[22]
  TGI: > 100 µM
[23]
  TGI: > 100 µM
[54]
  TGI: > 100 µM
[25]
  TGI: > 100 µM
[26]
  TGI: > 100 µM
[27]
  TGI: > 100 µM
[55]
  TGI: > 100 µM
[29]
  TGI: > 100 µM
[30]
  TGI: > 100 µM
[31]
  TGI: > 100 µM
[32]
  TGI: > 100 µM
[33]
  TGI: > 100 µM
[34]
  TGI: > 100 µM
[35]
  TGI: > 100 µM
[56]
  TGI: > 100 µM
[36]
  TGI: > 100 µM
[37]
  TGI: > 100 µM
[39]
  TGI: > 100 µM
[57]
  TGI: > 100 µM
[40]
  TGI: > 100 µM
[41]
  TGI: > 100 µM
[43]
  TGI: > 100 µM
[45]
  TGI: > 100 µM
[46]
  TGI: > 100 µM
[58]
  TGI: > 100 µM
[47]
  TGI: > 100 µM
[48]
  TGI: > 100 µM
[49]
  TGI: > 100 µM

## CC(C)(C)[Si](C)(C)O/N=C\c1cccc(O[Si](C)(C)C(C)(C)C)c1
[1]
  TGI: 33.6 µM
[50]
  TGI: 32.7 µM
[2]
  TGI: 35.7 µM
[3]
  TGI: 32.6 µM
[4]
  TGI: 28.8 µM
[5]
  TGI: 34.2 µM
[6]
  TGI: 35.1 µM
[7]
  TGI: 39.6 µM
[8]
  TGI: 30.8 µM
[51]
  TGI: 62.1 µM
[10]
  TGI: 41.7 µM
[11]
  TGI: 35.6 µM
[12]
  TGI: 38.8 µM
[13]
  TGI: 31.4 µM
[52]
  TGI: 29.6 µM
[14]
  TGI: 36.6 µM
[15]
  TGI: 46.2 µM
[16]
  TGI: 35.4 µM
[17]
  TGI: 29.4 µM
[18]
  TGI: 35 µM
[20]
  TGI: 38.5 µM
[53]
  TGI: 42.2 µM
[21]
  TGI: 38.9 µM
[22]
  TGI: 34.9 µM
[23]
  TGI: 32.4 µM
[24]
  TGI: 34.6 µM
[54]
  TGI: 35.3 µM
[25]
  TGI: 33.1 µM
[26]
  TGI: 32.6 µM
[27]
  TGI: 37.4 µM
[55]
  TGI: 34.7 µM
[29]
  TGI: 35.5 µM
[30]
  TGI: 36.8 µM
[31]
  TGI: 34.2 µM
[32]
  TGI: 31 µM
[33]
  TGI: 37.4 µM
[34]
  TGI: 46.7 µM
[56]
  TGI: 36.2 µM
[37]
  TGI: 36.8 µM
[39]
  TGI: 34.1 µM
[57]
  TGI: 29.8 µM
[40]
  TGI: 34.7 µM
[41]
  TGI: 42.3 µM
[42]
  TGI: 31.8 µM
[43]
  TGI: 32 µM
[44]
  TGI: 37.4 µM
[45]
  TGI: 32.2 µM
[46]
  TGI: 29.1 µM
[58]
  TGI: 49.8 µM
[47]
  TGI: 36.6 µM
[48]
  TGI: 36.9 µM
[49]
  TGI: 31.9 µM
